From patent US20100119589A1, “LIPOSOMAL COMPOSITION OF ANTIOXIDANTS FOR INHALATIONS CARRIED OUT DURING LUNG AND UPPER RESPIRATORY TRACT DISEASES” (OTKRYTOE AKTSIONERNOE OBSCHESTVO ZAVOD EKOLOGICHES, priority 2006, published 2010)

Legend:
[1] = in tablets; cited from earlier work
[2] = test system: multi lamellar vesicles of soybean phosphatidylcholine (PCh); assay: Inhibition of peroxidic oxidation of lipids (POL): TBA-sensitive products in soybean phosphatidylcholine liposomes; format: biochemical
Procedure: The antioxidative activity of preparations with varying combinations of the ingredients was evaluated on the basis of their effect on the increase of concentration of POL products (malondialdehyde or products that are sentitive to thiobarbituric acid (TBA)) in an aqueous dispersion of soybean phospholipids. For this evaluation the concentration in the soybean phospatidylcholine liposomes was measured at an initial moment and after incubation at 37° C. for 60 min. in the absence and presence of POL starters, namely, Fe^3+ ions and ascorbate.
Originally a 2.0 percent aqueous dispersion of phospholipides with antioxidants, where wheat germ oil is also present, contains an insignificant amount of products sensitive to TBA (0.8 nmol/ml). This amount rises to 2-2.5 times as much as a result of heating for 60 min. When starters are added to the original system the concentration of POL products rises to 40 nmol/ml during incubation at 37° C. for 60 min., i.e., will be […] as high.
Increase of the amount of products sensitive to TBA [nmol/ml] in multi lamellar vesicles of soybean phosphatidylcholine (PCh) containing N-acetyl-L-cysteine as a result of oxidation, the latter caused by introduction of an oxidation starter Pe3+/ascorbat (60 min, 37° C.) into the system, in the absence and presence of various antioxidants (AO).

In the case of vitamin E, the bioavailability [1] is given as 3%.
For `O=C1c2c(O)cc(O)cc2O[C@H](c2ccc(O)c(O)c2)[C@H]1O` [dihydroquercetin], the minimum effective concentration ([2]; POL inhibition) was 0.03 mg/mL and the “antioxidant activity when wheat germ oil was added” value ([2]; wheat germ oil added to dihydroquercetin) was “decreased”.
In the case of `O=C1O[C@H]([C@@H](O)CO)C(O)=C1O` [ascorbic acid], the minimum inhibiting concentration ([2]; POL inhibition, ascorbic acid alone) was 2500 µg/mL and the “decrease of the concentration of the acid when wheat germ oil is simultaneously present” value ([2]; wheat germ oil and ascorbic acid simultaneously present) was 5 times.
